Measured values published in patent publication US20060116397A1, “Use of saquinavir as a radiation sensitizer” (The Trustees of the University of Pennsylvania, priority 2004, published 2006).
“Also recorded” adds a separate entry of the source.

How the values were obtained:
[1] = test system: cells in tissue culture; experiment: Toxicity to cells in tissue culture; type: cell-based
[2] = test system: Akt; experiment: Western blot analysis of Akt phosphorylation in SQ2OB head-and-neck cancer cell line; type: cell-based, human; conditions: SQ2OB cells, 25 μM saquinavir, within 20 minutes, Western blot (FIG. 3)
Source text: Using Western blot analysis, a human head-and-neck cancer cell line, SQ2OB, containing a constitutively-active EGFR receptor and thus, increased signaling through PI3K, was examined for Akt phosphorylation.

[3] = test system: Akt; experiment: Western blot of Akt phosphorylation in white blood cells of HIV patients; type: in vivo, human; conditions: HIV patients taking saquinavir vs HIV patients not using saquinavir
Source text: As a proof of principle, it was examined whether there was down-regulation of Akt in HIV patients who are being actively treated with HPIs. Blood samples were obtained from HIV patients on courses of various combinations of drugs. WBCs were isolated and stained for Akt using a Western Blot.

[4] = test system: T24 cells; experiment: Clonogenic assay, radiation sensitization (surviving fraction after 2 Gy); type: cell-based
Description: Cultures of cells in log growth phase were counted and plated in 60-mm dishes containing 4 ml of media. The cells were allowed to attach and saquinavir was added to cultures at least one hour prior to irradiation. Cells were irradiated with a Mark I cesium irradiator (J. L. Shepherd, San Fernando, Calif.) at a dose rate of 1.6 Gy/min. Colonies were stained and counted 10-14 days after irradiation. A light box was used to assist in counting colonies. The surviving fraction was calculated by dividing the number of colonies formed by the number of cells plated times plating efficiency (Table 1). Each point value represents the mean surviving fraction from at least six replicate dishes.

Structure (SMILES): CC(C)(C)NC(=O)[C@@H]1C[C@@H]2CCCC[C@@H]2CN1C[C@@H](O)[C@H](Cc1ccccc1)NC(=O)[C@H](CC(N)=O)NC(=O)c1ccc2ccccc2n1 [saquinavir]
- toxicity to cells in tissue culture [1]: toxic to cells in tissue culture
- Akt phosphorylation at Ser 473 and at Thr 308 [2]: down-regulation of Akt phosphorylation at Ser 473 and at Thr 308
- Akt phosphorylation in white blood cells [3]: decreased Akt phosphorylation; also recorded: lower levels of Akt phosphorylation
- difference in cell kill (enhanced kill) vs radiation alone ([4]; T24, 30 fractions of 2 Gy): ~5 log
- surviving fraction after 2 Gy (SF2) ([4]; T24 cells, 10 μM saquinavir + 2 Gy radiation, control 56%): 36%
- saquinavir SF2 ([4]; T24 cells, saquinavir added at least one hour prior to irradiation, colonies counted 10-14 days after, mean of at least six dishes, control 0.560 +/− 0.061): 0.380 +/− 0.168
